Experimental data taken from ChEMBL document CHEMBL1142765, “Discodermolide analogues as the chemical component of combination bacteriolytic therapy” (Bioorg Med Chem Lett, 2005).

Tests used:
Format in all cases: functional, organism-based
Settings in all cases: Homo sapiens
[1] = test system: A549; test: Inhibitory concentration […] exhibited against A549 cell line […]
[2] = test system: SK-OV-3; test: Inhibitory concentration […] exhibited against SKOV3 cell line […]
[3] = test system: MCF7; test: Inhibitory concentration […] exhibited against MCF-7 cell line […]

C=C/C=C\[C@H](C)[C@H](OC(N)=O)[C@@H](C)[C@H](O)[C@@H](C)C/C(C)=C\[C@H](C)[C@@H](O)[C@@H](C)/C=C\[C@@H](O)C[C@@H]1OC(=O)[C@H](C)[C@@H](O)[C@H]1C [DISERMOLIDE]
IC50 [1]: 22 nM
IC50 [2]: 21 nM
IC50 [3]: 28 nM

C=C/C=C\[C@H](C)[C@H](OC(N)=O)[C@@H](C)[C@H](O)[C@@H](C)C/C(C)=C\[C@H](C)[C@@H](O)[C@@H](C)/C=C\[C@@H](O)C[C@@H]1OC(=O)C=C[C@H]1C
IC50 [1]: 3.7 nM
IC50 [2]: 3.4 nM
IC50 [3]: 2.1 nM

C=C/C=C\[C@H](C)[C@H](OC(N)=O)[C@@H](C)[C@H](O)[C@@H](C)C/C(C)=C\[C@H](C)[C@@H](O)[C@@H](C)/C=C\[C@@H](O)C[C@@H]1OC(=O)C(C)=C[C@H]1C
IC50 [1]: 8.6 nM
IC50 [2]: 3.4 nM
IC50 [3]: 5.6 nM

C=C/C=C\[C@H](C)[C@H](OC(N)=O)[C@@H](C)[C@H](O)[C@@H](C)C/C=C\[C@H](C)[C@@H](O)[C@@H](C)/C=C\[C@@H](O)C[C@@H]1OC(=O)[C@H](C)[C@@H](O)[C@H]1C
IC50 [1]: 50 nM
IC50 [2]: 35 nM
IC50 [3]: 46 nM
